From patent publication US20150374718A1, “Zhankuic Acid A and Analogs thereof and Their Use as an Anti-Inflammatory Agent” (National Cheng Kung University, priority 2014, published 2015) come the findings set out here.

By inhibition is commonly meant the drop in the measured response relative to a control, in per cent.

The structures appear in SMILES notation. Where two headings read alike, the source gives them in different places.

The assay has as its system LPS-induced TNF-α expression. In words: LPS-induced TNF-α expression in murine peritoneal macrophages (ELISA). It counts as cell-based. The settings on record: Mus musculus, Peritoneal macrophage. The method, then:
C57BL/6 mice were injected intraperitoneally with 3% thioglycollate, and their peritoneal macrophages were collected 72 h later. Macrophages were cultured in DMEM supplemented with 10% FBS and 50 μg/mL gentamicin at 37° C. in a humidified atmosphere of 5% CO2. […] Cell lysates were subjected to SDS-PAGE for detection of COX2 and iNOS expression. The presence of nitrite (a metabolite of NO) in the culture medium was analyzed by the Griess assay (Sigma-Aldrich), as previously described (16).
(ELISA stands for enzyme-linked immunosorbent assay.)

The mark [1] stands for this setting: 2 h, read-out: Inhibition of 2 h-TNF-α (%).
Setting [2] is: 4 h, read-out: Inhibition of 4 h-TNF-α (%).

Take `C=C(CCC(C)C1CCC2C3=C(C(=O)C[C@@]21C)[C@@]1(C)CCC(=O)[C@@H](C)C1CC3=O)C(C)C(=O)O` (stereo in doubt) [No. 1, Zhankuic acid A]: the inhibition at 10 µM is, setting by setting: under setting [1], 42.4%; under setting [2], 85.6%.
The corresponding values for `C=C(CC[C@@H](C)[C@H]1CC[C@H]2C3=C(C(=O)C[C@]12C)[C@@]1(C)CCC(=O)[C@@H](C)[C@@H]1CC3=O)C(C)C(=O)OC` (stereo partly shown) [No. 2, Zhankuic acid A methyl ester] are 51.6% and 80.3%.
As for `C=C(CC[C@@H](C)[C@H]1CCC2C3=C(C(=O)C[C@@]21C)[C@@]1(C)CC[C@@H](O)[C@@H](C)C1CC3=O)C(C)C(=O)O` (stereo partly shown) [No. 3, Zhankuic acid B], the inhibition at 10 µM is, setting by setting: under setting [1], 68.9%; under setting [2], 88.6%.
The corresponding values for `C=C(CC[C@@H](C)[C@H]1CC[C@H]2C3=C(C(=O)[C@H](O)[C@]12C)[C@@]1(C)CC[C@@H](O)[C@@H](C)[C@@H]1CC3=O)C(C)C(=O)O` (stereo partly shown) [No. 4, Zhankuic acid C] are 67.5% and 88.8%.
As for `C=C(CC[C@@H](C)[C@H]1CC[C@H]2C3=C(C(=O)[C@H](O)[C@]12C)[C@@]1(C)CC[C@@H](OC=O)[C@@H](C)[C@@H]1CC3=O)C(C)C(=O)O` (stereo partly shown) [No. 5, Zhankuic acid C 3-O-formate], the inhibition at 10 µM was determined as 1.62% under setting [1] and 45.3% under setting [2].
The corresponding values for `C=C(CC[C@@H](C)[C@H]1CCC2C3=C(C(=O)C[C@@]21C)[C@@]1(C)CCC(=O)[C@@H](C)C1CC3=O)C(C)C(=O)OCC` (stereo partly shown) [No. 6, Zhankuic acid D] are 67.1% and 54.8%.
The corresponding values for `C=C(CC[C@@H](C)[C@H]1CC[C@H]2C3=C(C(=O)C[C@]12C)[C@@]1(C)CCC(=O)[C@@H](C)[C@@H]1CC3)C(C)C(=O)O` (stereo partly shown) [No. 7, Antcin A] are 40.6% and 90.7%.
The corresponding values for `C=C(CC[C@@H](C)[C@H]1CCC2C3=C(C(=O)C[C@@]21C)[C@@]1(C)CCC(=O)[C@@H](C)C1CC3)C(C)C(=O)OC` (stereo partly shown) [No. 8, Antcin A methyl ester] are 19.4% and 85.2%.
Take `C=C(CC[C@@H](C)[C@H]1CCC2C3=C(C(=O)C[C@@]21C)[C@@]1(C)CCC(=O)[C@@H](C)C1C[C@@H]3O)C(C)C(=O)O` (stereo partly shown) [No. 9, Antcin C]: the inhibition at 10 µM by setting is: under setting [1], 43.6%; under setting [2], 43.1%.
On the same counts, the results for `C=C(CC[C@@H](C)[C@H]1CC[C@H]2C3=C(C(=O)C[C@]12C)[C@@]1(C)CC[C@@H](O)[C@](C)(O)[C@@H]1C[C@@H]3O)C(C)C(=O)O` (stereo partly shown) [No. 10, Antcin K] are 49.4% and 88.5%.
The corresponding values for `C=C(CC[C@@H](C)[C@H]1CC[C@H]2C3=C(C(=O)[C@H](O)[C@]12C)[C@@]1(C)CC[C@@H](OC=O)[C@@H](C)[C@@H]1CC3)C(C)C(=O)O` (stereo partly shown) [No. 11, Antcin M 3-O-formate] are below 0% and 88.3%.
Turning to `C=C(CC[C@@H](C)[C@H]1CC[C@H]2C3=C(C(=O)[C@H](O)[C@]12C)[C@@]1(C)CC[C@@H](O)[C@@H](C)C1C[C@@H]3O)C(C)C(=O)O` (stereo partly shown) [No. 12, Camphoratin A], the inhibition at 10 µM was 22.8% under setting [1] and 29.9% under setting [2].
The corresponding values for `C=C(CC[C@@H](C)[C@H]1CC[C@H]2C3=C(C(=O)C[C@]12C)[C@@]1(C)CC[C@@H](O)[C@@H](C)C1C[C@@H]3O)C(C)C(=O)O` (stereo partly shown) [No. 13, Camphoratin B] are 40.7% and 87%.
The corresponding values for `C=C(CC[C@@H](C)[C@H]1CC[C@@]2(O)C3=C(C(=O)C[C@]12C)[C@@]1(C)CCC(=O)[C@@H](C)C1C[C@@H]3O)C(C)C(=O)O` (stereo partly shown) [No. 14, Camphoratin D] are 65.8% and 81.7%.
The corresponding values for `C=C(CC[C@@H](C)[C@H]1CCC2C3=C(C(=O)C[C@@]21C)[C@@]1(C)CC[C@@H](O)[C@@H](C)C1CC3=O)C(C)C(=O)OC` (stereo partly shown) [No. 15, Camphoratin E] are 78% and 89.4%.
Consider `C=C(CC[C@@H](C)[C@H]1CCC2C3=C(C(=O)C[C@@]21C)[C@@]1(C)CCC(=O)[C@@H](C)C1C[C@@H]3O)C(C)C(=O)OC` (stereo partly shown) [No. 16, Camphoratin F], for which the inhibition at 10 µM is, setting by setting: under setting [1], 38.2%; under setting [2], 80.2%.
Regarding `C=C(CC[C@@H](C)[C@H]1CCC2C3=C(C(=O)C[C@@]21C)[C@@]1(C)CCC(=O)[C@@H](C)C1C[C@H]3O)C(C)C(=O)O` (stereo partly shown) [No. 17, Camphoratin G], the inhibition at 10 µM stood at 68.8% under setting [1] and 22.5% under setting [2].
The corresponding values for `C=C(CC[C@@H](C)[C@H]1CC[C@@H]2C3=C(C(=O)C[C@@]21C)[C@@]1(C)CCC(=O)[C@@H](C)C1CC3)C(C)C(=O)OC` (stereo partly shown) [No. 19, Camphoratin J] are 73.4% and 90.2%.
The corresponding values for `CC(=O)CC[C@@H](C)[C@H]1CCC2C3=C(C(=O)C[C@@]21C)[C@@]1(C)CCC(=O)[C@@H](C)C1CC3=O` (stereo partly shown) [No. 21, Camphoratin L] are 73.9% and 30.6%.
On the same counts, the results for `C=C(CC[C@@H](C)[C@H]1CCC2C3=C(C(=O)[C@H](O)[C@@]21C)[C@@]1(C)CCC(=O)[C@@H](C)C1CC3=O)C(C)C(=O)OC` (stereo partly shown) [No. 22, Camphoratin N] are 58.3% and 89%.
Regarding `CC(C)[C@@H](C)/C=C/[C@@H](C)[C@H]1CC[C@@H]2[C@]1(C)CC[C@H]1[C@]23C=C[C@]2(C[C@@H](O)CC[C@]12C)OO3` [No. 25, Ergosterol peroxide], the inhibition at 10 µM is below 0% under setting [1] and below 0% under setting [2].
Consider `C=C(CC[C@@H](C)[C@H]1CC[C@H]2C3=C(C(=O)C[C@]12C)[C@@]1(C)CCC(=O)[C@@H](C)[C@@H]1CC3)C(C)C(=O)OC` (stereo partly drawn) [No. 26, Methyl-4α-methylergost-8,24(28)-diene-3,11-dion-26-oate], for which the inhibition at 10 µM reads like this: under setting [1], 49.3%; under setting [2], below 0%.
On the same counts, the results for `C=C(CC[C@@H](C)[C@H]1CC[C@H]2C3=C(C(=O)[C@H](O)[C@]12C)[C@@]1(C)CC[C@@H](O)[C@@H](C)[C@@H]1CC3=O)C(C)C(=O)OC` (stereo partly shown) [No. 27, Methyl antcinate H] are 79.8% and 91.5%.
